What all share (test): Cell proliferation assay (CellTiter-Glo)
Assay type in all cases: cell-based
(In general: In ATP-based viability assays light output follows the ATP content of the culture.)

In one experiment the target is T1, BaF3 EML4-ALK (Homo sapiens, UniProt Q9UM73).
T1 construct: The EML4-ALK gene (variant 1) was synthesized at GenScript and cloned into pCDH-CMV-MCS-EF1-Puro plasmid (System Biosciences, Inc); fused on or other part: EML4 N-terminal part (variant 1: exons 1-13, with the coiled-coil that oligomerises the fusion) fused to the intracellular part of ALK, which contains the kinase domain; Q9HC35 (Echinoderm microtubule-associated protein-like 4)
The following applies: anti-cell proliferation, 72 hours. The protocol:
Cloning and Ba/F3 or NIH3T3 Stable Cell Line Creation
The EML4-ALK gene (variant 1) was synthesized at GenScript and cloned into pCDH-CMV-MCS-EF1-Puro plasmid (System Biosciences, Inc). Ba/F3-EML4-ALK wild type were generated by transducing Ba/F3 cells with lentivirus containing EML4-ALK wide type. Stable cell lines were selected by puromycin treatment, followed by IL-3 withdrawal. Briefly, 5×10^6 Ba/F3 cells were transduced with lentivirus supernatant in the presence of 8 μg/mL protamine sulfate. The transduced cells were subsequently selected with 1 μg/mL puromycin in the presence of IL3-containing medium RPMI1640, plus 10% FBS. After 10-12 days of selection, the surviving cells were further selected for IL3 independent growth.
(§1) Cell Proliferation Assays:
(§2) Two thousand cells per well were seeded in 384 well white plate for 24 hrs, and then treated with compounds for 72 hours (37° C., 5% CO2). Cell proliferation was measured using CellTiter-Glo luciferase-based ATP detection assay (Promega) following the manufactures's protocol. IC50 determinations were performed using GraphPad Prism software (GraphPad, Inc., San Diego, Calif.).

Another experiment relates to KG-1 cell (OP2-FGFR1). The following applies: Homo sapiens, anti-cell proliferation, 72 hours. The protocol: (§3) Cell Lines and Cell Culture:
(§4) Colorectal cell line KM 12 (harboring endogenous TPM3-TRKA fusion gene) was obtained from NCI. Acute myelogenous cell line KG-1 (harboring endogenous OP2-FGFR1 fusion gene) were purchased from ATCC.
as §1, §2

A further experiment relates to KM12 (TPM3-TRKA). Conditions: Homo sapiens, anti-cell proliferation, 72 hours. On the procedure:
as §3, §4, §1, §2

The term IC50 denotes the point on the concentration scale where inhibition reaches its midpoint. A high value points to a need for much substance.

T1 sequence (Q9UM73 whole entry, stated change not applied, the tested form may be a part): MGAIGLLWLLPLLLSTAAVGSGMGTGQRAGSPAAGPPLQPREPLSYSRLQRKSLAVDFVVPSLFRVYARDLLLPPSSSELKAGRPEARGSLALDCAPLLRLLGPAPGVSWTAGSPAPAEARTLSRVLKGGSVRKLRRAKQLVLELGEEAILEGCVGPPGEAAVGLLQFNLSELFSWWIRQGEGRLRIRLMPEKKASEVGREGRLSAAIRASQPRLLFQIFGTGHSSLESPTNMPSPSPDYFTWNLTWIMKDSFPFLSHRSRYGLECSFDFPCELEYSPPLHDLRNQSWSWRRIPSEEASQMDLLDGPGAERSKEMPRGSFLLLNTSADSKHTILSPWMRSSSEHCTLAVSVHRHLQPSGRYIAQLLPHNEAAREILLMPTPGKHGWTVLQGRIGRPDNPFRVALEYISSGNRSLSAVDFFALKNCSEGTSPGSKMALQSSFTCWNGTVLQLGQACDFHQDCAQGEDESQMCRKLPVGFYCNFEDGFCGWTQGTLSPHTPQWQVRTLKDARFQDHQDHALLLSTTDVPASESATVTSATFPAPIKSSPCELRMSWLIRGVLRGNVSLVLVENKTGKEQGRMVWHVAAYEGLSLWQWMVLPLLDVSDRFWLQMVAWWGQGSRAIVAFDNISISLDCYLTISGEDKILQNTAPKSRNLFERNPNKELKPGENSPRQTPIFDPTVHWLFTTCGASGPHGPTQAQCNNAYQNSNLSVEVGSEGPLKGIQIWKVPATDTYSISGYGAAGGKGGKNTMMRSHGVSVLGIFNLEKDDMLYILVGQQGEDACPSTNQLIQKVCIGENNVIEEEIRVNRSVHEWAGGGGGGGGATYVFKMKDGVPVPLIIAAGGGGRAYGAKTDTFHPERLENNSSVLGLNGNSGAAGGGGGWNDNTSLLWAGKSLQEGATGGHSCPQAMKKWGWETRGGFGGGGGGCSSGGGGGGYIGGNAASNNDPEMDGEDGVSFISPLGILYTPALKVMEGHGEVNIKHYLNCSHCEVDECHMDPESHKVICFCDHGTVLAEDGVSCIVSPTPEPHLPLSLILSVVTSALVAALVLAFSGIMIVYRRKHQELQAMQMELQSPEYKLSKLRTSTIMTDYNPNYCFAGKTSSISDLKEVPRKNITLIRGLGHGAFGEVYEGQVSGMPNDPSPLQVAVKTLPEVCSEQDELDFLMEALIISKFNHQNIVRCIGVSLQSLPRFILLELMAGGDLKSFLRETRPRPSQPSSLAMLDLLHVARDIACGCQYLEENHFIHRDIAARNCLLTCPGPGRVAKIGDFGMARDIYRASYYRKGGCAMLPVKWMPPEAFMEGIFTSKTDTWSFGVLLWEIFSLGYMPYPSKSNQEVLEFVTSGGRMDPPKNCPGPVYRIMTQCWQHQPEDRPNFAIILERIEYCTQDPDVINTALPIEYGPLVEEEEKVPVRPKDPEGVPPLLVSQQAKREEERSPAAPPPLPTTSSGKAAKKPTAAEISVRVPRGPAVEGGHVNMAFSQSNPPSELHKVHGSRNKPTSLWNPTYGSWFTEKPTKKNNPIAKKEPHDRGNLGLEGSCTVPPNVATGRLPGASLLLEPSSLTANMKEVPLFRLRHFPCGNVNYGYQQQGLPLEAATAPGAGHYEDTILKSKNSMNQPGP

Regarding `C[C@@H]1CCOc2cn3ncc4c3nc2N1Cc1cc(F)cnc1O[C@@H](C)CNC4=O` [Compound 21, (5R,13S)-9-fluoro-5,13-dimethyl-4,5,14,15-tetrahydro-3H,7H-19,1-(metheno)[1,4]oxazepino[3,4-i]pyrazolo[4,3-f]pyrido[3,2-l][1,4,8,10]oxatriazacyclotridecin-16(13H)-one], the figures for the IC50 against BaF3 EML4-ALK, with KG-1 cell (OP2-FGFR1) and in the experiment with KM12 (TPM3-TRKA) were 3 µM, 1.82 µM and 0.0006 µM, respectively.

For the compound `C[C@@H]1COc2ncc(F)cc2CN2c3nc4c(cnn4cc3OCC[C@H]2C)C(=O)N1` [Compound 22, (5R,14R)-9-fluoro-5,14-dimethyl-4,5,14,15-tetrahydro-3H,7H-19,1-(metheno)[1,4]oxazepino[3,4-i]-pyrazolo[4,3-f]pyrido[3,2-l] [1,4,8,10]oxatriazacyclotridecin-16(13H)-one], the figures for the IC50 against BaF3 EML4-ALK, with KG-1 cell (OP2-FGFR1) and in the experiment on KM12 (TPM3-TRKA) were 0.731 µM, 0.784 µM and less than 0.0002 µM, respectively.

On to `C[C@@H]1CCOc2cn3ncc4c3nc2N1Cc1c(ccc(F)c1Cl)O[C@@H](C)CNC4=O` [Compound 23, (5R,13S)-8-chloro-9-fluoro-5,13-dimethyl-4,5,14,15-tetrahydro-3H,7H-19,1-(metheno)[1,4]-oxazepino[3,4-i]pyrazolo[4,3-f] [1,4,8,10]benzoxatriazacyclo-tridecin-16(13H)-one], for which the IC50 against BaF3 EML4-ALK was 1.93 µM; in the experiment on KG-1 cell (OP2-FGFR1) it was 9.51 µM; in the experiment with KM12 (TPM3-TRKA) it was less than 0.0002 µM.

Consider `C[C@@H]1COc2ncc(F)cc2CN2c3nc4c(cnn4cc3OC[C@H]2C2CC2)C(=O)N1` [Compound 25, (4R,13R)-4-cyclopropyl-8-fluoro-13-methyl-3,4,13,14-tetrahydro-6H-18,1-(metheno)[1,4]oxazino[3,4-i]pyrazolo[4,3-f]pyrido[3,2-l][1,4,8,10]oxatriazacyclotridecin-15(12H)-one], for which the IC50 against BaF3 EML4-ALK was 0.0891 µM; in the experiment on KG-1 cell (OP2-FGFR1), 0.131 µM; in the experiment on KM12 (TPM3-TRKA), less than 0.0002 µM.

`C[C@H]1CNC(=O)c2cnn3cc4c(nc23)N(Cc2cc(F)cnc2O1)[C@H](C1CC1)CO4` [Compound 26, (4R,12S)-4-cyclopropyl-8-fluoro-12-methyl-3,4,13,14-tetrahydro-6H-18,1-(metheno)[1,4]oxazino-[3,4-i]pyrazolo[4,3-f]pyrido-[3,2-l]-[1,4,8,10]oxatriazacyclo-tridecin-15(12H)-one]: the values for the IC50 against BaF3 EML4-ALK, in the experiment with KG-1 cell (OP2-FGFR1) and in the experiment on KM12 (TPM3-TRKA) were 0.692 µM, 0.694 µM and less than 0.0002 µM, respectively.

As for `C[C@H]1CNC(=O)c2cnn3cc4c(nc23)N(Cc2cc(F)cnc2O1)C1(CC1)CO4` [Compound 27, (12′S)-8′-fluoro-12′-methyl-3′H,6′H,12′H,13′H,14′H,15′H-spiro[cyclopropane-1,4′-[2,11]-dioxa[5,10,14,17,18,19]hexaaza-[18,1](metheno)[1,4]oxazino[3,4-i]pyrazolo[4,3-f]pyrido[3,2-l] [1,4,8,10]oxatriazacyclotridecin]-15′-one], the IC50 on BaF3 EML4-ALK was 0.604 µM; with KG-1 cell (OP2-FGFR1) it was 3.57 µM; in the experiment with KM12 (TPM3-TRKA) it was less than 0.0002 µM.

For `C[C@@H]1COc2ncc(F)cc2CN2c3nc4c(cnn4cc3OCC23CC3)C(=O)N1` [Compound 28, (13′R)-8′-fluoro-13′-methyl-3′H,6′H,12′H,14′H,15′H-spiro-[cyclopropane-1,4′-[2,11]dioxa-[5,10,14,17,18,19]hexaaza[18,1]-(metheno)[1,4]oxazino[3,4-i]-pyrazolo[4,3-f]pyrido[3,2-l] [1,4,8,10]oxatriazacyclotridecin]-15′-one], the IC50 on BaF3 EML4-ALK is 0.18 µM; in the experiment with KG-1 cell (OP2-FGFR1) it was 0.786 µM; with KM12 (TPM3-TRKA), less than 0.0002 µM.

As for `C[C@@H]1COc2cn3ncc4c3nc2N(Cc2cc(F)cnc2OC[C@@H](C)NC4=O)C1` [Compound 29, (4S,14R)-9-fluoro-4,14-dimethyl-4,5,14,15-tetrahydro-3H,7H-19,1-(metheno)[1,4]oxazepino[3,4-i]-pyrazolo[4,3-f]pyrido[3,2-l] [1,4,8,10]oxatriazacyclotridecin-16(13H)-one], the IC50 turned out to be 0.826 µM at BaF3 EML4-ALK, 0.13 µM in the experiment with KG-1 cell (OP2-FGFR1) and 0.0096 µM with KM12 (TPM3-TRKA).

Consider `C[C@@H]1COc2cn3ncc4c3nc2N(Cc2cc(F)cnc2O[C@@H](C)CNC4=O)C1` [Compound 30, (4S,13S)-9-fluoro-4,13-dimethyl-4,5,14,15-tetrahydro-3H,7H-19,1-(metheno)[1,4]oxazepino[3,4-i]-pyrazolo[4,3-f]pyrido[3,2-l] [1,4,8,10]oxatriazacyclotridecin-16(13H)-one], for which the IC50 turned out to be 7.38 µM at BaF3 EML4-ALK, 0.536 µM in the experiment on KG-1 cell (OP2-FGFR1) and 0.042 µM with KM12 (TPM3-TRKA).

For the compound `C[C@@H]1COc2cn3ncc4c3nc2N(Cc2cc(F)ccc2OC[C@@H](C)NC4=O)C1` [Compound 31, (4S,14R)-9-fluoro-4,14-dimethyl-4,5,14,15-tetrahydro-3H,7H-19,1-(metheno)[1,4]oxazepino[3,4-i]-pyrazolo[4,3-f][1,4,8,10]benzo-xatriazacyclotridecin-16(13H)-one], the IC50 at BaF3 EML4-ALK was 1.33 µM; in the experiment on KG-1 cell (OP2-FGFR1) it was 0.779 µM; in the experiment on KM12 (TPM3-TRKA), less than 0.0002 µM.

On to `C[C@@H]1CCOc2ncc(F)cc2CN2c3nc4c(cnn4cc3OC[C@H]2C)C(=O)N1` [Compound 32, (6R,16R)-12-fluoro-6,16-dimethyl-5,6,7,8,16,17-hexahydro-4H,14H-1,19-(metheno)[1,4]oxazino[4,3-e]pyrazolo[3,4-h]pyrido[2,3-b] [1,5,7,11]oxatriazacyclotetradecin-4-one], for which the values for the IC50 on BaF3 EML4-ALK, in the experiment with KG-1 cell (OP2-FGFR1) and in the experiment on KM12 (TPM3-TRKA) were 0.0746 µM, 0.137 µM and less than 0.0002 µM, respectively.

In the case of `C[C@@H]1COc2cn3ncc4c3nc2N1Cc1cc(F)cnc1OCCCNC4=O` [Compound 33, (16R)-12-fluoro-16-methyl-5,6,7,8,16,17-hexahydro-4H,14H-1,19-(metheno)[1,4]oxazino[4,3-e]pyrazolo[3,4-h]pyrido[2,3-b] [1,5,7,11]oxatriazacyclotetradecin-4-one], the IC50 against BaF3 EML4-ALK was 0.0584 µM; with KG-1 cell (OP2-FGFR1), 0.0371 µM; in the experiment with KM12 (TPM3-TRKA), less than 0.0002 µM.

For `C[C@@H]1COc2cn3ncc4c3nc2N1Cc1cc(F)cnc1OCC1(CC1)NC4=O` [Compound 34, (4′R)-8′-fluoro-4′-methyl-3′H,4′H,6′H,12′H,14′H,15′H-spiro[cyclopropane-1,13′-[2,11]dioxa[5,10,14,17,18,19]hexaaza[18,1](metheno)[1,4]oxazino[3,4-i]pyrazolo[4,3-f]pyrido[3,2-l][1,4,8,10]oxatriazacyclotridecin]-15′-one], the IC50 at BaF3 EML4-ALK was 0.0237 µM; in the experiment on KG-1 cell (OP2-FGFR1), 0.0125 µM; in the experiment with KM12 (TPM3-TRKA), less than 0.0002 µM.

As for `C[C@H]1CNC(=O)c2cnn3cc4c(nc23)N(Cc2cc(F)cnc2OC1)[C@H](C)CO4` [Compound 35, (7S,16R)-12-fluoro-7,16-dimethyl-5,6,7,8,16,17-hexahydro-4H,14H-1,19-(metheno)[1,4]oxazino[4,3-e]pyrazolo[3,4-h]pyrido[2,3-b] [1,5,7,11]oxatriazacyclotetra-decin-4-one], the IC50 on BaF3 EML4-ALK is 0.0482 µM; in the experiment with KG-1 cell (OP2-FGFR1) it was 0.0335 µM; in the experiment on KM12 (TPM3-TRKA), less than 0.0002 µM.

As to `C[C@@H]1COc2cn3ncc4c3nc2N1Cc1cc(F)cnc1O[C@@H](C)CCNC4=O` [Compound 36, (8S,16R)-12-fluoro-8,16-dimethyl-5,6,7,8,16,17-hexahydro-4H,14H-1,19-(metheno)[1,4]oxazino[4,3-e]pyrazolo[3,4-h]pyrido[2,3-b] [1,5,7,11]oxatriazacyclotetra-decin-4-one], the IC50 on BaF3 EML4-ALK is 0.0609 µM; in the experiment on KG-1 cell (OP2-FGFR1), 0.0253 µM; in the experiment with KM12 (TPM3-TRKA), less than 0.0002 µM.

(Values after patent US20210087206A1, “MACROCYCLIC KINASE INHIBITORS AND THEIR USE” (TURNING POINT THERAPEUTICS, INC., priority 2017, published 2021).)
